From patent US11000033B2, “Ketone or oxime compound, and herbicide” (NISSAN CHEMICAL CORPORATION, priority 2014, dated 2021)

Legend:
Format in all cases: in vivo
Monochoria vaginalis = test: Test Example 2: herbicidal activity, application during weed generation in submerged conditions (symbol C); conditions: Table 23; application herbicide amount 320 g/ha; grade 0-5 by criteria of Test Example 1
Procedure, shortened: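 Scoring of herbicidal effect took place 3 weeks after treatment, using the criteria of the earlier test. Treatment was water-surface application of diluted emulsifiable compound at a set dose. Plants were at one- to two-leaf stage in submerged alluvial soil (4 cm depth), greenhouse 25-30° C.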

Cyperus difformis = test: Test Example 3: herbicidal effect by foliage application, Wagner pot (symbol E); conditions: application herbicide amount 320 g/ha
Procedure, shortened: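 Foliar spray of a water-diluted emulsion at a predetermined herbicide amount, applied to 14-day-old plants. Seedlings were raised in flooded alluvial soil (0.1–0.5 cm water) at 25–30 °C in a greenhouse. Injury was rated after 3 weeks against fixed criteria.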

[1] = system: directly sowed rice plant; test: Test Example 3: effect on crop by foliage application, Wagner pot (symbol b); conditions: application herbicide amount 320 g/ha
Procedure, shortened: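 Greenhouse culture at 25–30 °C of seeded rice, Cyperus difformis, Leptochloa chinensis and Echinochloa crus-galli var. crus-galli, in alluvial soil held under 0.1–0.5 cm of water in a Wagner pot.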

Setaria viridis = test: Test Example 4: herbicidal effect by soil treatment (symbol G); conditions: application herbicide amount 320 g/ha
Procedure, shortened: (§1)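 Seeds were sown in sterilized diluvial soil, covered with about 1.5 cm of soil, and the soil surface was sprayed with a water-diluted emulsion of the compound at a predetermined rate. Plants grew in a greenhouse at 25° C. to 30° C.; effects were scored visually 3 weeks after application.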

Apera spica-venti = test: Test Example 4: herbicidal effect by soil treatment (symbol L); conditions: application herbicide amount 320 g/ha
Procedure, shortened: as §1

Abutilon theophrasti = test: Test Example 4: herbicidal effect by soil treatment (symbol M); conditions: application herbicide amount 320 g/ha
Procedure, shortened: as §1

Amaranthus retroflexus = test: Test Example 4: herbicidal effect by soil treatment (symbol N); conditions: application herbicide amount 320 g/ha
Procedure, shortened: as §1

Stellaria media = test: Test Example 4: herbicidal effect by soil treatment (symbol P); conditions: application herbicide amount 320 g/ha
Procedure, shortened: as §1

rice = test: Test Example 4: effect on crop by soil treatment (symbol b); conditions: application herbicide amount 320 g/ha
Procedure, shortened: (§2)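 Steps: fill box with sterilized diluvial soil; sow seed spot-like; cover with ~1.5 cm soil; grow in greenhouse (25° C. to 30° C.).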

wheat [2] = test: Test Example 4: effect on crop by soil treatment (symbol e); conditions: application herbicide amount 320 g/ha
Procedure, shortened: as §2

Digitaria ciliaris = test: Test Example 5: herbicidal effect by foliage application, plastic box (symbol F); conditions: 320 g/ha, 3 weeks after application
Procedure, shortened: (§3)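 After sowing into sterilized diluvial soil and growing two weeks under glass at 25° C. to 30° C., seedlings receive a uniform foliar spray of diluted emulsion. Damage is judged visually three weeks on.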

Avena fatua = test: Test Example 5: herbicidal effect by foliage application, plastic box (symbol I); conditions: 320 g/ha, 3 weeks after application
Procedure, shortened: as §3

Alopecurus myosuroides = test: Test Example 5: herbicidal effect by foliage application, plastic box (symbol J); conditions: 320 g/ha, 3 weeks after application
Procedure, shortened: as §3

soybean = test: Test Example 5: effect on crop by foliage application, plastic box (symbol d); conditions: 320 g/ha, 3 weeks after application
Procedure, shortened: (§4)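 Greenhouse test at 25° C. to 30° C. Seeds of crops and weeds were spot-sown in boxes of sterilized diluvial soil under roughly 1.5 cm soil cover, then grown for foliage treatment.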

wheat [3] = test: Test Example 5: effect on crop by foliage application, plastic box (symbol e); conditions: 320 g/ha, 3 weeks after application
Procedure, shortened: as §4

beet = test: Test Example 5: effect on crop by foliage application, plastic box (symbol f); conditions: 320 g/ha, 3 weeks after application
Procedure, shortened: as §4

In the case of `CCON=C(C)CC1CC(O)=C(c2c(C)cc(C)cc2C)C1=O` (stereo not shown) [1-003], the “Herbicidal effect grade, C: Monochoria vaginalis” value (“Herbicidal effect grade, C” for short) (Monochoria vaginalis) is reported as 3 (Herbicidal ratio of 40% or higher and lower than 70%), the “herbicidal effect on E, grade 0-5” value (Cyperus difformis) is reported as 5 (Herbicidal ratio of 90% or more (almost completely withered)) and the “effect on crop b (directly sowed rice plant), grade 0-5” value (“effect on crop b” below) [1] is reported as 5 (Herbicidal ratio of 90% or more (almost completely withered)). The “G (Setaria viridis) herbicidal effect grade” value (Setaria viridis) was 3 (Herbicidal ratio of 40% or higher and lower than 70%), the “L (Apera spica-venti) herbicidal effect grade” value (Apera spica-venti) was 5 (Herbicidal ratio of 90% or more (almost completely withered)) and the “M (Abutilon theophrasti) herbicidal effect grade” value (Abutilon theophrasti) was 4 (Herbicidal ratio of 70% or higher and lower than 90%). For the same compound, the “N (Amaranthus retroflexus) herbicidal effect grade” value (Amaranthus retroflexus) was 3 (Herbicidal ratio of 40% or higher and lower than 70%), the “P (Stellaria media) herbicidal effect grade” value (Stellaria media) was 3 (Herbicidal ratio of 40% or higher and lower than 70%) and the “b (directly sowed rice plant) effect on crop grade” value (rice) was 5 (Herbicidal ratio of 90% or more (almost completely withered)). For the same compound, the “e (wheat) effect on crop grade” value (wheat [2]) was 5 (Herbicidal ratio of 90% or more (almost completely withered)), the “F: Digitaria ciliaris, herbicidal effect grade” value (from here on “F: Digitaria ciliaris”) (Digitaria ciliaris) was 5 (Herbicidal ratio of 90% or more (almost completely withered)) and the “I: Avena fatua, herbicidal effect grade” value (Avena fatua) was 5 (Herbicidal ratio of 90% or more (almost completely withered)). The “J: Alopecurus myosuroides, herbicidal effect grade” value (from here on “J: Alopecurus myosuroides”) (Alopecurus myosuroides) was 5 (Herbicidal ratio of 90% or more (almost completely withered)), the “d: soybean, effect on crop grade” value (soybean) was 3 (Herbicidal ratio of 40% or higher and lower than 70%) and the “e: wheat, effect on crop grade” value (wheat [3]) was 5 (Herbicidal ratio of 90% or more (almost completely withered)). For the same compound, the “f: beet, effect on crop grade” value (beet) was 3 (Herbicidal ratio of 40% or higher and lower than 70%).
`COCCON=C(C)CC1CC(O)=C(c2c(C)cc(C)cc2C)C1=O` (stereo not shown) [1-041] was tested, and the “Herbicidal effect grade, C” value (Monochoria vaginalis) was 0 (Herbicidal ratio of 5% or lower (almost no effect)), the “herbicidal effect on E, grade 0-5” value (Cyperus difformis) was 5 (Herbicidal ratio of 90% or more (almost completely withered)) and the “effect on crop b” value [1] was 5 (Herbicidal ratio of 90% or more (almost completely withered)). The “G (Setaria viridis) herbicidal effect grade” value (Setaria viridis) was 5 (Herbicidal ratio of 90% or more (almost completely withered)), the “L (Apera spica-venti) herbicidal effect grade” value (Apera spica-venti) was 5 (Herbicidal ratio of 90% or more (almost completely withered)) and the “M (Abutilon theophrasti) herbicidal effect grade” value (Abutilon theophrasti) was 3 (Herbicidal ratio of 40% or higher and lower than 70%). For the same compound, the “N (Amaranthus retroflexus) herbicidal effect grade” value (Amaranthus retroflexus) was 3 (Herbicidal ratio of 40% or higher and lower than 70%), the “P (Stellaria media) herbicidal effect grade” value (Stellaria media) was 0 (Herbicidal ratio of 5% or lower (almost no effect)) and the “b (directly sowed rice plant) effect on crop grade” value (rice) was 5 (Herbicidal ratio of 90% or more (almost completely withered)). The “e (wheat) effect on crop grade” value (wheat [2]) was 4 (Herbicidal ratio of 70% or higher and lower than 90%), the “F: Digitaria ciliaris” value (Digitaria ciliaris) was 5 (Herbicidal ratio of 90% or more (almost completely withered)) and the “I: Avena fatua, herbicidal effect grade” value (Avena fatua) was 5 (Herbicidal ratio of 90% or more (almost completely withered)). For the same compound, the “J: Alopecurus myosuroides” value (Alopecurus myosuroides) was 5 (Herbicidal ratio of 90% or more (almost completely withered)), the “d: soybean, effect on crop grade” value (soybean) was 4 (Herbicidal ratio of 70% or higher and lower than 90%) and the “e: wheat, effect on crop grade” value (wheat [3]) was 5 (Herbicidal ratio of 90% or more (almost completely withered)). For the same compound, the “f: beet, effect on crop grade” value (beet) was 1 (Herbicidal ratio of 5% or higher and lower than 20%).
`CON=C(C)CC1CC(OC)=C(c2c(C)cc(C)cc2C)C1=O` (stereo not shown) [1-001, 2-mesityl-3-methoxy-5-{2-(methoxyimino)propyl}cyclopent-2-enone] was tested, and the “Herbicidal effect grade, C” value (Monochoria vaginalis) was 0 (Herbicidal ratio of 5% or lower (almost no effect)), the “herbicidal effect on E, grade 0-5” value (Cyperus difformis) was 0 (Herbicidal ratio of 5% or lower (almost no effect)) and the “effect on crop b” value [1] was 0 (Herbicidal ratio of 5% or lower (almost no effect)). The “G (Setaria viridis) herbicidal effect grade” value (Setaria viridis) was 0 (Herbicidal ratio of 5% or lower (almost no effect)), the “L (Apera spica-venti) herbicidal effect grade” value (Apera spica-venti) was 0 (Herbicidal ratio of 5% or lower (almost no effect)) and the “M (Abutilon theophrasti) herbicidal effect grade” value (Abutilon theophrasti) was 0 (Herbicidal ratio of 5% or lower (almost no effect)). For the same compound, the “N (Amaranthus retroflexus) herbicidal effect grade” value (Amaranthus retroflexus) was 0 (Herbicidal ratio of 5% or lower (almost no effect)), the “P (Stellaria media) herbicidal effect grade” value (Stellaria media) was 0 (Herbicidal ratio of 5% or lower (almost no effect)) and the “b (directly sowed rice plant) effect on crop grade” value (rice) was 0 (Herbicidal ratio of 5% or lower (almost no effect)). For the same compound, the “e (wheat) effect on crop grade” value (wheat [2]) was 0 (Herbicidal ratio of 5% or lower (almost no effect)), the “F: Digitaria ciliaris” value (Digitaria ciliaris) was 0 (Herbicidal ratio of 5% or lower (almost no effect)) and the “I: Avena fatua, herbicidal effect grade” value (Avena fatua) was 0 (Herbicidal ratio of 5% or lower (almost no effect)). For the same compound, the “J: Alopecurus myosuroides” value (Alopecurus myosuroides) was 0 (Herbicidal ratio of 5% or lower (almost no effect)), the “d: soybean, effect on crop grade” value (soybean) was 0 (Herbicidal ratio of 5% or lower (almost no effect)) and the “e: wheat, effect on crop grade” value (wheat [3]) was 0 (Herbicidal ratio of 5% or lower (almost no effect)). The “f: beet, effect on crop grade” value (beet) was 0 (Herbicidal ratio of 5% or lower (almost no effect)).
In the case of `CON=C(C)CC1CC(OC(=O)C(C)Cl)=C(c2c(C)cc(C)cc2C)C1=O` (stereo not shown) [1-042], the “Herbicidal effect grade, C” value (Monochoria vaginalis) is reported as 3 (Herbicidal ratio of 40% or higher and lower than 70%), the “herbicidal effect on E, grade 0-5” value (Cyperus difformis) is reported as 5 (Herbicidal ratio of 90% or more (almost completely withered)) and the “effect on crop b” value [1] is reported as 5 (Herbicidal ratio of 90% or more (almost completely withered)). For the same compound, the “G (Setaria viridis) herbicidal effect grade” value (Setaria viridis) was 5 (Herbicidal ratio of 90% or more (almost completely withered)), the “L (Apera spica-venti) herbicidal effect grade” value (Apera spica-venti) was 5 (Herbicidal ratio of 90% or more (almost completely withered)) and the “M (Abutilon theophrasti) herbicidal effect grade” value (Abutilon theophrasti) was 5 (Herbicidal ratio of 90% or more (almost completely withered)). For the same compound, the “N (Amaranthus retroflexus) herbicidal effect grade” value (Amaranthus retroflexus) was 4 (Herbicidal ratio of 70% or higher and lower than 90%), the “P (Stellaria media) herbicidal effect grade” value (Stellaria media) was 0 (Herbicidal ratio of 5% or lower (almost no effect)) and the “b (directly sowed rice plant) effect on crop grade” value (rice) was 5 (Herbicidal ratio of 90% or more (almost completely withered)). The “e (wheat) effect on crop grade” value (wheat [2]) was 1 (Herbicidal ratio of 5% or higher and lower than 20%), the “F: Digitaria ciliaris” value (Digitaria ciliaris) was 5 (Herbicidal ratio of 90% or more (almost completely withered)) and the “I: Avena fatua, herbicidal effect grade” value (Avena fatua) was 5 (Herbicidal ratio of 90% or more (almost completely withered)). The “J: Alopecurus myosuroides” value (Alopecurus myosuroides) was 5 (Herbicidal ratio of 90% or more (almost completely withered)), the “d: soybean, effect on crop grade” value (soybean) was 3 (Herbicidal ratio of 40% or higher and lower than 70%) and the “e: wheat, effect on crop grade” value (wheat [3]) was 5 (Herbicidal ratio of 90% or more (almost completely withered)). For the same compound, the “f: beet, effect on crop grade” value (beet) was 1 (Herbicidal ratio of 5% or higher and lower than 20%).
